Experiments:
HT-29 = assay: Antiproliferative activity against human HT29 cells after 48 hrs by MTT assay; format: functional, cell-based; details: HT-29, 48 h
[1] = Inhibition of human recombinant N-myristoyltransferase

Which results are given for `COc1ccc(C(=S)NNC(=O)c2ccccc2)cc1`?
IC50 (HT-29): 90.9 µM; IC50 [1]: 3200 µM

— ChEMBL document CHEMBL1149804, “Bioactivity of novel transition metal complexes of N'-[(4-methoxy)thiobenzoyl]benzoic acid hydrazide” (Eur J Med Chem, 2008)
